{
  "source": "the supplement of paper PMC10307832",
  "test_in_all_cases": "relative viability (nuclei count vs DMSO), 5 days (fraction); higher = more cells survive",
  "key": {"Sunitinib": {"compound": "CCN(CC)CCNC(=O)c1c(C)[nH]c(/C=C2\\C(=O)Nc3ccc(F)cc32)c1C [Sunitinib]", "outline": "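Only plates meeting two conditions passed: control CV below 25% and at least one doubling. Lung cancer cell lines, kept overnight at 37 °C in 1536-well plates, were pinned with five library-drug doses (not always all listed) √10 apart on vehicle-anchored plates and grown 5 days without medium change. A one-step fix, permeabilisation and Hoechst stain preceded 4× imaging and MetaXpress nuclear counting. Viability equals treated-well nuclei divided by vehicle-well nuclei, as the median over plates.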"}, "Sunitinib + Bortezomib": {"compound": "CCN(CC)CCNC(=O)c1c(C)[nH]c(/C=C2\\C(=O)Nc3ccc(F)cc32)c1C [Sunitinib] + CC(C)C[C@H](NC(=O)[C@H](Cc1ccccc1)NC(=O)c1cnccn1)B(O)O [Bortezomib] (partner 0.002 µM)", "outline": "(§1)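 Relative viability divides the nuclei count in treated wells by that in vehicle wells. Lung cancer cell lines were seeded in 1536-well plates, dosed by pin tool the next day, and fixed and stained after 5 days in one step with final 0.05% Triton X-100, 1% formaldehyde and 1 ug/ml Hoechst. Dosing was a single drug or a fixed anchor-drug dose plus five library-drug doses (not always all listed) in √10 steps, and values are medians of duplicate plates imaged at 4×.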"}, "Sunitinib + Navitoclax": {"compound": "CCN(CC)CCNC(=O)c1c(C)[nH]c(/C=C2\\C(=O)Nc3ccc(F)cc32)c1C [Sunitinib] + CC1(C)CCC(c2ccc(Cl)cc2)=C(CN2CCN(c3ccc(C(=O)NS(=O)(=O)c4ccc(N[C@H](CCN5CCOCC5)CSc5ccccc5)c(S(=O)(=O)C(F)(F)F)c4)cc3)CC2)C1 [Navitoclax] (partner 0.5 µM)", "outline": "as §1"}, "Sunitinib + Foretinib": {"compound": "CCN(CC)CCNC(=O)c1c(C)[nH]c(/C=C2\\C(=O)Nc3ccc(F)cc32)c1C [Sunitinib] + COc1cc2c(Oc3ccc(NC(=O)C4(C(=O)Nc5ccc(F)cc5)CC4)cc3F)ccnc2cc1OCCCN1CCOCC1 [Foretinib] (partner 0.25 µM)", "outline": "as §1"}, "Sunitinib + Lapatinib": {"compound": "CCN(CC)CCNC(=O)c1c(C)[nH]c(/C=C2\\C(=O)Nc3ccc(F)cc32)c1C [Sunitinib] + CS(=O)(=O)CCNCc1ccc(-c2ccc3ncnc(Nc4ccc(OCc5cccc(F)c5)c(Cl)c4)c3c2)o1 [Lapatinib] (partner 2 µM)", "outline": "as §1"}, "Sunitinib + Pictilisib": {"compound": "CCN(CC)CCNC(=O)c1c(C)[nH]c(/C=C2\\C(=O)Nc3ccc(F)cc32)c1C [Sunitinib] + CS(=O)(=O)N1CCN(Cc2cc3nc(-c4cccc5[nH]ncc45)nc(N4CCOCC4)c3s2)CC1 [Pictilisib] (partner 1 µM)", "outline": "as §1"}, "Sunitinib + Crizotinib": {"compound": "CCN(CC)CCNC(=O)c1c(C)[nH]c(/C=C2\\C(=O)Nc3ccc(F)cc32)c1C [Sunitinib] + C[C@@H](Oc1cc(-c2cnn(C3CCNCC3)c2)cnc1N)c1c(Cl)ccc(F)c1Cl [Crizotinib] (partner 1 µM)", "outline": "as §1"}, "Sunitinib + Linsitinib": {"compound": "CCN(CC)CCNC(=O)c1c(C)[nH]c(/C=C2\\C(=O)Nc3ccc(F)cc32)c1C [Sunitinib] + C[C@]1(O)C[C@@H](c2nc(-c3ccc4ccc(-c5ccccc5)nc4c3)c3c(N)nccn32)C1 [Linsitinib] (partner 1 µM)", "outline": "as §1"}, "Sunitinib + Alpelisib": {"compound": "CCN(CC)CCNC(=O)c1c(C)[nH]c(/C=C2\\C(=O)Nc3ccc(F)cc32)c1C [Sunitinib] + Cc1nc(NC(=O)N2CCC[C@H]2C(N)=O)sc1-c1ccnc(C(C)(C)C(F)(F)F)c1 [Alpelisib] (partner 2 µM)", "outline": "as §1"}, "Sunitinib + AZD7762": {"compound": "CCN(CC)CCNC(=O)c1c(C)[nH]c(/C=C2\\C(=O)Nc3ccc(F)cc32)c1C [Sunitinib] + NC(=O)Nc1cc(-c2cccc(F)c2)sc1C(=O)N[C@H]1CCCNC1 [AZD7762] (partner 0.2 µM)", "outline": "as §1"}, "Sunitinib + Olaparib": {"compound": "CCN(CC)CCNC(=O)c1c(C)[nH]c(/C=C2\\C(=O)Nc3ccc(F)cc32)c1C [Sunitinib] + O=C(c1cc(Cc2n[nH]c(=O)c3ccccc23)ccc1F)N1CCN(C(=O)C2CC2)CC1 [Olaparib] (partner 8 µM)", "outline": "as §1"}},
  "data": [
    {"cell line": "NCI-H1703", "values": [
      {"measurement": "relative viability", "setting": "Sunitinib; 0.02 µM", "value": 0.616},
      {"measurement": "relative viability", "setting": "Sunitinib; 0.06325 µM", "value": 0.257},
      {"measurement": "relative viability", "setting": "Sunitinib; 0.2 µM", "value": 0.315},
      {"measurement": "relative viability", "setting": "Sunitinib; 0.6325 µM", "value": 0.216},
      {"measurement": "relative viability", "setting": "Sunitinib; 2 µM", "value": 0.242},
      {"measurement": "relative viability", "setting": "Sunitinib + Bortezomib; first compound 0.02 µM", "value": 0.249},
      {"measurement": "relative viability", "setting": "Sunitinib + Bortezomib; first compound 0.06325 µM", "value": 0.218},
      {"measurement": "relative viability", "setting": "Sunitinib + Bortezomib; first compound 0.2 µM", "value": 0.176},
      {"measurement": "relative viability", "setting": "Sunitinib + Bortezomib; first compound 0.6325 µM", "value": 0.19},
      {"measurement": "relative viability", "setting": "Sunitinib + Bortezomib; first compound 2 µM", "value": 0.176},
      {"measurement": "relative viability", "setting": "Sunitinib + Navitoclax; first compound 0.02 µM", "value": 0.621},
      {"measurement": "relative viability", "setting": "Sunitinib + Navitoclax; first compound 0.06325 µM", "value": 0.264},
      {"measurement": "relative viability", "setting": "Sunitinib + Navitoclax; first compound 0.2 µM", "value": 0.289},
      {"measurement": "relative viability", "setting": "Sunitinib + Navitoclax; first compound 0.6325 µM", "value": 0.254},
      {"measurement": "relative viability", "setting": "Sunitinib + Navitoclax; first compound 2 µM", "value": 0.184},
      {"measurement": "relative viability", "setting": "Sunitinib + Foretinib; first compound 0.02 µM", "value": 0.333},
      {"measurement": "relative viability", "setting": "Sunitinib + Foretinib; first compound 0.06325 µM", "value": 0.25},
      {"measurement": "relative viability", "setting": "Sunitinib + Foretinib; first compound 0.2 µM", "value": 0.284},
      {"measurement": "relative viability", "setting": "Sunitinib + Foretinib; first compound 0.6325 µM", "value": 0.306},
      {"measurement": "relative viability", "setting": "Sunitinib + Foretinib; first compound 2 µM", "value": 0.254},
      {"measurement": "relative viability", "setting": "Sunitinib + Lapatinib; first compound 0.02 µM", "value": 0.633},
      {"measurement": "relative viability", "setting": "Sunitinib + Lapatinib; first compound 0.06325 µM", "value": 0.264},
      {"measurement": "relative viability", "setting": "Sunitinib + Lapatinib; first compound 0.2 µM", "value": 0.318},
      {"measurement": "relative viability", "setting": "Sunitinib + Lapatinib; first compound 0.6325 µM", "value": 0.245},
      {"measurement": "relative viability", "setting": "Sunitinib + Lapatinib; first compound 2 µM", "value": 0.284},
      {"measurement": "relative viability", "setting": "Sunitinib + Pictilisib; first compound 0.02 µM", "value": 0.215},
      {"measurement": "relative viability", "setting": "Sunitinib + Pictilisib; first compound 0.06325 µM", "value": 0.208},
      {"measurement": "relative viability", "setting": "Sunitinib + Pictilisib; first compound 0.2 µM", "value": 0.245},
      {"measurement": "relative viability", "setting": "Sunitinib + Pictilisib; first compound 0.6325 µM", "value": 0.224},
      {"measurement": "relative viability", "setting": "Sunitinib + Pictilisib; first compound 2 µM", "value": 0.204},
      {"measurement": "relative viability", "setting": "Sunitinib + Crizotinib; first compound 0.02 µM", "value": 0.39},
      {"measurement": "relative viability", "setting": "Sunitinib + Crizotinib; first compound 0.06325 µM", "value": 0.206},
      {"measurement": "relative viability", "setting": "Sunitinib + Crizotinib; first compound 0.2 µM", "value": 0.238},
      {"measurement": "relative viability", "setting": "Sunitinib + Crizotinib; first compound 0.6325 µM", "value": 0.17},
      {"measurement": "relative viability", "setting": "Sunitinib + Crizotinib; first compound 2 µM", "value": 0.225},
      {"measurement": "relative viability", "setting": "Sunitinib + Linsitinib; first compound 0.02 µM", "value": 0.51},
      {"measurement": "relative viability", "setting": "Sunitinib + Linsitinib; first compound 0.06325 µM", "value": 0.18},
      {"measurement": "relative viability", "setting": "Sunitinib + Linsitinib; first compound 0.2 µM", "value": 0.257},
      {"measurement": "relative viability", "setting": "Sunitinib + Linsitinib; first compound 0.6325 µM", "value": 0.174},
      {"measurement": "relative viability", "setting": "Sunitinib + Linsitinib; first compound 2 µM", "value": 0.17},
      {"measurement": "relative viability", "setting": "Sunitinib + Alpelisib; first compound 0.02 µM", "value": 0.211},
      {"measurement": "relative viability", "setting": "Sunitinib + Alpelisib; first compound 0.06325 µM", "value": 0.161},
      {"measurement": "relative viability", "setting": "Sunitinib + Alpelisib; first compound 0.2 µM", "value": 0.199},
      {"measurement": "relative viability", "setting": "Sunitinib + Alpelisib; first compound 0.6325 µM", "value": 0.154},
      {"measurement": "relative viability", "setting": "Sunitinib + Alpelisib; first compound 2 µM", "value": 0.188},
      {"measurement": "relative viability", "setting": "Sunitinib + AZD7762; first compound 0.02 µM", "value": 0.136},
      {"measurement": "relative viability", "setting": "Sunitinib + AZD7762; first compound 0.06325 µM", "value": 0.146},
      {"measurement": "relative viability", "setting": "Sunitinib + AZD7762; first compound 0.2 µM", "value": 0.127},
      {"measurement": "relative viability", "setting": "Sunitinib + AZD7762; first compound 0.6325 µM", "value": 0.138},
      {"measurement": "relative viability", "setting": "Sunitinib + AZD7762; first compound 2 µM", "value": 0.122},
      {"measurement": "relative viability", "setting": "Sunitinib + Olaparib; first compound 0.02 µM", "value": 0.229},
      {"measurement": "relative viability", "setting": "Sunitinib + Olaparib; first compound 0.06325 µM", "value": 0.267},
      {"measurement": "relative viability", "setting": "Sunitinib + Olaparib; first compound 0.2 µM", "value": 0.251},
      {"measurement": "relative viability", "setting": "Sunitinib + Olaparib; first compound 0.6325 µM", "value": 0.154},
      {"measurement": "relative viability", "setting": "Sunitinib + Olaparib; first compound 2 µM", "value": 0.157}
    ]}
  ]
}
